Key:
Assay in all cases: Further analysis of a plurality of inhibitors and a plurality of kinases (Table 5 inhibition results)
Assay type in all cases: biochemical
Design in all cases: scale not given here
kinases of Table 5 [1] = biological target: kinases of Table 5 (Homo sapiens, UniProt P37173); details: kinase TGFBR2 (Part I, plate C7, Domain 1)
Excerpt: (§1) The wash solution is then discarded.

kinases of Table 5 [2] = biological target: T1, kinases of Table 5 (Homo sapiens, UniProt P41743); details: kinase PRKCI (Part I, plate A2, Domain 0)
T1 sequence (P41743 1-596): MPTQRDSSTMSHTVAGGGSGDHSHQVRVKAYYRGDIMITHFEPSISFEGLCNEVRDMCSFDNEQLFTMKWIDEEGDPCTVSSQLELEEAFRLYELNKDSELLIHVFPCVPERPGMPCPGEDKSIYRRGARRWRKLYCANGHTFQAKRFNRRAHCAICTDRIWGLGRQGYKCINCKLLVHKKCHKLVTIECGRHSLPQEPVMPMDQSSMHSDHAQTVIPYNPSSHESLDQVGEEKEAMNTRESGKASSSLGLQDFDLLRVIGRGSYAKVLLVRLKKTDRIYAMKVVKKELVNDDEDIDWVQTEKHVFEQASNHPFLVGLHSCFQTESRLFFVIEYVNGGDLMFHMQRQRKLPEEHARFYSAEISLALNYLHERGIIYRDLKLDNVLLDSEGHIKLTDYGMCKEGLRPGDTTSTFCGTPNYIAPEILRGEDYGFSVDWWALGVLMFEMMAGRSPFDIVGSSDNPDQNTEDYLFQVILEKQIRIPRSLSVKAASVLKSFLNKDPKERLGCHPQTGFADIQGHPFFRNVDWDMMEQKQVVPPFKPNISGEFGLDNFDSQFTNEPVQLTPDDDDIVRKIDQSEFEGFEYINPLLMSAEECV
Excerpt: as §1

kinases of Table 5 [3] = biological target: T2, kinases of Table 5 (Homo sapiens, UniProt Q8IVH8); details: kinase MAP4K3 (Part I, plate C5, Domain 1); inhibitor 100 uM
T2 sequence (Q8IVH8 1-894): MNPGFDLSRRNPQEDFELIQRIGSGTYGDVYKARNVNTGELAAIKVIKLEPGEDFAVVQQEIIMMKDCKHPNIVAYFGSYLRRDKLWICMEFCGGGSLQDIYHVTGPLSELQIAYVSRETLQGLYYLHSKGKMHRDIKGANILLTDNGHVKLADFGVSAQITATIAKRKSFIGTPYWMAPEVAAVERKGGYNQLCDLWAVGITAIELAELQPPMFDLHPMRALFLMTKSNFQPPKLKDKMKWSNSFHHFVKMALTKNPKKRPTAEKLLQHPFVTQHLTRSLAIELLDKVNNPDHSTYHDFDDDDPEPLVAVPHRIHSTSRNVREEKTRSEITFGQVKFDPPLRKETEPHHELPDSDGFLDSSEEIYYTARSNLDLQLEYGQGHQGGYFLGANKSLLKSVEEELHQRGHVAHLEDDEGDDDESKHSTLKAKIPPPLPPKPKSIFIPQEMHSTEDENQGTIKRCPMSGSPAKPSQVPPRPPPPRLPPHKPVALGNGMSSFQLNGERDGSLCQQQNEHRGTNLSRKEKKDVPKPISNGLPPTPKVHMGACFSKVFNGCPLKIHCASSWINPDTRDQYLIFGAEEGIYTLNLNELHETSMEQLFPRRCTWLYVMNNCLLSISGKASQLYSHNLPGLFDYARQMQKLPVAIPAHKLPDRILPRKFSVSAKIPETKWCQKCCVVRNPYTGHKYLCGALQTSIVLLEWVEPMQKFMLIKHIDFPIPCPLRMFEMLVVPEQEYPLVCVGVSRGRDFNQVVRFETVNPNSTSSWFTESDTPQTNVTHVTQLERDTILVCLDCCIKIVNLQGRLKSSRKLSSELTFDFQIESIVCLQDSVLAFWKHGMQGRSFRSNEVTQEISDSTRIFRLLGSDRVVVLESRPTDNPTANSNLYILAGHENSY
Excerpt: as §1

kinases of Table 5 [4] = biological target: T3, kinases of Table 5 (Homo sapiens, UniProt Q92630); details: for Inhibition level: kinase DYRK2; for Inhibition Results (Level): kinase DYRK2 (Part II, plate D11, Domain 1)
T3 sequence (Q92630 1-601): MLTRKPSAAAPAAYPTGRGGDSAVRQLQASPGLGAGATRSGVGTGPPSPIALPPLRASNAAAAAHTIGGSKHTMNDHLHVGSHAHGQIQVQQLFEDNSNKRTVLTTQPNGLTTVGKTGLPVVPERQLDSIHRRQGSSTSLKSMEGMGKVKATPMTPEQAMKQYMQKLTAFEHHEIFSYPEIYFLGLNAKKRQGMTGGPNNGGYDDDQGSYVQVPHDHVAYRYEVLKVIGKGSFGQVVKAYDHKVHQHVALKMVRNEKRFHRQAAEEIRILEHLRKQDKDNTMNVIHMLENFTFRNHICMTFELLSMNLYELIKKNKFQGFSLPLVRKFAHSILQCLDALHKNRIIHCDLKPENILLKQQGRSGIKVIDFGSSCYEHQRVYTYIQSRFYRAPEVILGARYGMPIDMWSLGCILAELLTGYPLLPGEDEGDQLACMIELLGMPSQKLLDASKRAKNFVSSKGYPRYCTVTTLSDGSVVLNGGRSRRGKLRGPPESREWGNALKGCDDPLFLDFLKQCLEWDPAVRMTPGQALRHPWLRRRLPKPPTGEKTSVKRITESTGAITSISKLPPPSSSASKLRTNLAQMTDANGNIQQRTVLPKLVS
Excerpt: as §1

kinases of Table 5 [5] = biological target: kinases of Table 5 (Homo sapiens, UniProt Q9Y6E0); details: inhibitor 100 uM; for Inhibition level: kinase STK24; for Inhibition Results (Level): kinase STK24 (Part II, plate F11, Domain 0)
Excerpt: as §1

kinases of Table 5 (Homo sapiens, UniProt Q9Y6E0), sequence (Q9Y6E0 whole entry): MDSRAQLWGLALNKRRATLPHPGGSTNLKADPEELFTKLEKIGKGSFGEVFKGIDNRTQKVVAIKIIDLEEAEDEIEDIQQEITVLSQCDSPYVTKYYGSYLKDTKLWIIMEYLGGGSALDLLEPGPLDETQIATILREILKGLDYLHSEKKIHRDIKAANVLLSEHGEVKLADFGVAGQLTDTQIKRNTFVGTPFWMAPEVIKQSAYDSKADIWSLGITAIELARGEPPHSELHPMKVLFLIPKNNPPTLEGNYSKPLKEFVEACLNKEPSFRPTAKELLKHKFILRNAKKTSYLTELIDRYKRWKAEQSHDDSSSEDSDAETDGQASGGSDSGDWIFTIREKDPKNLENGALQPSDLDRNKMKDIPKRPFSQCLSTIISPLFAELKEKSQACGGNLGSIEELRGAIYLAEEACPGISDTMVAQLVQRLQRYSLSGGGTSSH
kinases of Table 5 (Homo sapiens, UniProt P37173), sequence (P37173 23-567): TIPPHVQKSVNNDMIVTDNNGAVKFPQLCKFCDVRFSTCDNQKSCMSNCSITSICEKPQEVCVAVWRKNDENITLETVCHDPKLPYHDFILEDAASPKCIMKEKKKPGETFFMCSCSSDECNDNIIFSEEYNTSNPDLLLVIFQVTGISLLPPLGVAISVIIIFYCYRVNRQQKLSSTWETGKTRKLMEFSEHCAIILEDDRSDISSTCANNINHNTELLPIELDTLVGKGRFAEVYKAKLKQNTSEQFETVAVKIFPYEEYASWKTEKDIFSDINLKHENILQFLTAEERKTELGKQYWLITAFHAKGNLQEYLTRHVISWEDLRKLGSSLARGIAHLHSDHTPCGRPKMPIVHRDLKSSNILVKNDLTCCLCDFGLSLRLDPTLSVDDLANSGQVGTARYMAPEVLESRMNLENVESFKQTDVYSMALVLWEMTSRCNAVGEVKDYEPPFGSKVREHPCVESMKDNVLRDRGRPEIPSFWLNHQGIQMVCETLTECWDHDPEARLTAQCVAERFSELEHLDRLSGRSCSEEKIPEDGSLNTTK

N#C/C(=C/c1ccc(O)c(O)c1)C(=O)NCc1ccccc1 [AG 490]
Inhibition Results (Level) (kinases of Table 5 [1]; inhibitor 100 uM): 2
Inhibition Results (Level) (kinases of Table 5 [2]; inhibitor 100 uM): 2
Inhibition Results (Level) (kinases of Table 5 [3]): 1
Inhibition level (kinases of Table 5 [4]; inhibitor 100 uM): 2
Inhibition level (kinases of Table 5 [5]): 2

COc1cc2ncnc(Nc3cccc(Cl)c3)c2cc1OC [AG 1478]
Inhibition Results (Level) (kinases of Table 5 [1]; inhibitor 100 uM): 2
Inhibition Results (Level) (kinases of Table 5 [2]; inhibitor 100 uM): 0
Inhibition Results (Level) (kinases of Table 5 [3]): 2
Inhibition level (kinases of Table 5 [4]; inhibitor 100 uM): 2
Inhibition level (kinases of Table 5 [5]): 1

O=c1c(-c2ccc(O)cc2)coc2cc(O)cc(O)c12 [Genistein]
Inhibition Results (Level) (kinases of Table 5 [1]; inhibitor 100 uM): 2
Inhibition Results (Level) (kinases of Table 5 [1]; inhibitor <3.7 mM): 1
Inhibition Results (Level) (kinases of Table 5 [2]; inhibitor 100 uM): 2
Inhibition Results (Level) (kinases of Table 5 [2]; inhibitor <3.7 mM): 0
Inhibition Results (Level) (kinases of Table 5 [3]): 2
Inhibition level (kinases of Table 5 [4]; concentration not given): 1
Inhibition level (kinases of Table 5 [4]; inhibitor 100 uM): 2
Inhibition level (kinases of Table 5 [5]): 2

O=S(=O)(NCCNC/C=C/c1ccc(Br)cc1)c1cccc2cnccc12 [H-89]
Inhibition Results (Level) (kinases of Table 5 [1]; inhibitor 100 uM): 2
Inhibition Results (Level) (kinases of Table 5 [2]; inhibitor 100 uM): 2
Inhibition Results (Level) (kinases of Table 5 [3]): 1
Inhibition Results (Level) (kinases of Table 5 [4]; inhibitor 100 uM): 2
Inhibition Results (Level) (kinases of Table 5 [5]): 2

CC(C)(C)n1nc(-c2ccc(Cl)cc2)c2c(N)ncnc21 [PP2]
Inhibition Results (Level) (kinases of Table 5 [1]; inhibitor 100 uM): 2
Inhibition Results (Level) (kinases of Table 5 [2]; inhibitor 100 uM): 1
Inhibition Results (Level) (kinases of Table 5 [3]): 2
Inhibition level (kinases of Table 5 [4]; inhibitor 100 uM): 2
Inhibition level (kinases of Table 5 [5]): 2

O=c1c(O)c(-c2ccc(O)c(O)c2)oc2cc(O)cc(O)c12 [Quercetin]
Inhibition Results (Level) (kinases of Table 5 [1]; inhibitor 100 uM): 0
Inhibition Results (Level) (kinases of Table 5 [2]; inhibitor 100 uM): 0
Inhibition Results (Level) (kinases of Table 5 [3]): 1
Inhibition Results (Level) (kinases of Table 5 [4]; inhibitor 100 uM): 2

Cn1cc(C2=C(c3cn(CCCSC(=N)N)c4ccccc34)C(=O)NC2=O)c2ccccc21 [Ro-31-8220]
Inhibition Results (Level) (kinases of Table 5 [1]; inhibitor 90 uM): 2
Inhibition Results (Level) (kinases of Table 5 [1]; inhibitor 100 uM): 2
Inhibition Results (Level) (kinases of Table 5 [2]; inhibitor 90 uM): 2
Inhibition Results (Level) (kinases of Table 5 [2]; inhibitor 100 uM): 0
Inhibition Results (Level) (kinases of Table 5 [3]): 2
Inhibition level (kinases of Table 5 [4]; concentration not given): 0
Inhibition level (kinases of Table 5 [4]; inhibitor 100 uM): 2
Inhibition level (kinases of Table 5 [5]): 2

CC(=O)c1c(O)c(C)c(O)c(Cc2c(O)c3c(c(C(=O)/C=C/c4ccccc4)c2O)OC(C)(C)C=C3)c1O [Rottlerin (Mallotoxin)]
Inhibition Results (Level) (kinases of Table 5 [1]; inhibitor 100 uM): 2
Inhibition Results (Level) (kinases of Table 5 [2]; inhibitor 100 uM): 2
Inhibition Results (Level) (kinases of Table 5 [3]): 1
Inhibition Results (Level) (kinases of Table 5 [4]; inhibitor 100 uM): 2
Inhibition Results (Level) (kinases of Table 5 [5]): 1

CN[C@@H]1C[C@H]2O[C@@](C)([C@@H]1OC)n1c3ccccc3c3c4c(c5c6ccccc6n2c5c31)C(=O)NC4 [Staurosporine]
Inhibition Results (Level) (kinases of Table 5 [1]; inhibitor 21.5 uM): 2
